Laboratory results taken from US10782295B2, “Cysteine-reactive ligand discovery in proteomes” (THE SCRIPPS RESEARCH INSTITUTE, priority 2013, dated 2020).

Assays:
Experiment in all cases: competitive isoTOP-ABPP, MDA-MB-231 soluble proteome
Format in all cases: binding
PSMB8 = target: T1, PSMB8 (Homo sapiens, UniProt P28062); settings: 100 μM LDE, 60 min; peptide LLSNMMC*QYR
T1 construct: directly in native proteomes; endogenous in cells; host or cells: MDA-MB-231
T1 sequence (P28062 73-276): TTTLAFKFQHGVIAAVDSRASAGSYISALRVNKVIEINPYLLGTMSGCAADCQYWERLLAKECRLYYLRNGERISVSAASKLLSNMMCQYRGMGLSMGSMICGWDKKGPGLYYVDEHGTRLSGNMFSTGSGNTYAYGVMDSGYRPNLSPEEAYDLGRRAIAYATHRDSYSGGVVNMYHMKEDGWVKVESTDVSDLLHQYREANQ

MMS19 = target: T2, MMS19 (Homo sapiens, UniProt Q96T76); settings: 60 min; for R value (isoTOP-ABPP ratio heavy/light) for IA-labeled cysteine of MMS19: 100 μM LDE, peptide LMGLLSDPELGPAAADGFSLLMSDC*TDVLTR
T2 construct: directly in native proteomes; endogenous in cells; host or cells: MDA-MB-231
T2 sequence (Q96T76 1-1030): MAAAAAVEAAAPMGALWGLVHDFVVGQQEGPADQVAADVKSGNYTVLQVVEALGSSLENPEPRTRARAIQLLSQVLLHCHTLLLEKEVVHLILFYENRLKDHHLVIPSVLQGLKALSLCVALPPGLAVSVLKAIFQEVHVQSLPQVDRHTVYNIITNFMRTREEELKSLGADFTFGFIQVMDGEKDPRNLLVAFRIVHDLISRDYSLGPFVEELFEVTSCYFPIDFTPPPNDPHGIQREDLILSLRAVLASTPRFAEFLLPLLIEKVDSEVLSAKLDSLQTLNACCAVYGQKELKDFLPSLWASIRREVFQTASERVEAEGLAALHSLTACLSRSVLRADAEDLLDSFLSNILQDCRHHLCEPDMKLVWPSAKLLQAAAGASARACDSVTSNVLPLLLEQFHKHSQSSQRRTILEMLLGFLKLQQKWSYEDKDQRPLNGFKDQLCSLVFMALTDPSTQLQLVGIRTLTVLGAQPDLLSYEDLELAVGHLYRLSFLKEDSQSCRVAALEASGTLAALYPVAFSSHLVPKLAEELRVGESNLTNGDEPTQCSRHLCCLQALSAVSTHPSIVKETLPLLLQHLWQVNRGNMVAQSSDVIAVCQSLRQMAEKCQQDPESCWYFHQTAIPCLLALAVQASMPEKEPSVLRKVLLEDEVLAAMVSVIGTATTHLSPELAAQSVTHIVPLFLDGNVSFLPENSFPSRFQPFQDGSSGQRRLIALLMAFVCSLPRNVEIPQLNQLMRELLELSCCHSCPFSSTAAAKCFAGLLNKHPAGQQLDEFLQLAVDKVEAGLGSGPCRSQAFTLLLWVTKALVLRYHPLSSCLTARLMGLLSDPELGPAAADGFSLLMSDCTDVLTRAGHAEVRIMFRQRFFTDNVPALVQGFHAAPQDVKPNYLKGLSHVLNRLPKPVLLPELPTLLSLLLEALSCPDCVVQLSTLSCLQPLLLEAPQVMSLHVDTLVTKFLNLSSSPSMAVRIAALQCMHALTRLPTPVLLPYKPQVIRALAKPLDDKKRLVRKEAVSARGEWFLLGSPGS

REEP5 = target: T3, REEP5 (Homo sapiens, UniProt Q00765); settings: 100 μM LDE, 60 min; peptide NC*MTDLLAK
T3 construct: directly in native proteomes; endogenous in cells; host or cells: MDA-MB-231
T3 sequence (Q00765 whole entry): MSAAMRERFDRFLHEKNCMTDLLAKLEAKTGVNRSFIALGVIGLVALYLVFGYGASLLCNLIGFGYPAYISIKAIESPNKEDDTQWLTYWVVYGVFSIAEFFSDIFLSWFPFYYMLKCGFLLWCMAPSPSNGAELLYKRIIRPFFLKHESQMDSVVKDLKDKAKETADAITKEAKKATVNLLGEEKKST

Row | SMILES | R value (isoTOP-ABPP ratio heavy/light) for IA-labeled cysteine of PSMB8 (PSMB8) | R value (isoTOP-ABPP ratio heavy/light) for IA-labeled cysteine of MMS19 (MMS19) | R value (isoTOP-ABPP ratio heavy/light) for IA-labeled cysteine of REEP5 (REEP5) | blockade of IA-probe labeling of Cys848 of MMS19 (MMS19; 100 μM)
1 | CCCCCCCCCCCCC/C=C/C=O [2-HD, 2-trans-hexadecenal] | 1.05 | 1.1 | 1.18 | –
2 | CCCCCC(O)/C=C/C=O (stereo not shown) [4-HNE, 4-Hydroxynonenal] | 1.19 | 1.78 | 7.08 | –
3 | CCCCC/C=C/C=C1/C(=O)C=C[C@@H]1C/C=C\CCCC(=O)O [PGJ2, 15-deoxy-Δ12,14-prostaglandin J2] | 5.86 | >15 | 7.38 | completely blocked
